Assay results reported in ChEMBL document CHEMBL1201862, “PubChem BioAssay data set” (2004).
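Following 48 hours of exposure in 96-well plates, responses at five concentrations were used to interpolate endpoints linearly. GI50: concentration for 50% inhibition of growth.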 The source made the active and inactive calls. No stated cut-off is given here; in the data, active = GI50 up to about 1.1 µM and inactive = higher.

Assays:
Test in all cases: NCI anticancer screen, dose series, 48 h
SF-539 = tested on: SF-539
IGROV-1 = tested on: IGROV-1
SR = tested on: SR
SK-MEL-28 = tested on: SK-MEL-28
HT-29 = tested on: HT-29
T47D = tested on: T47D
SW-620 = tested on: SW-620
M14 = tested on: M14
U-251 = tested on: U-251
KM12 = tested on: KM12
CCRF-CEM = tested on: CCRF-CEM
NCI-H23 = tested on: NCI-H23
ACHN = tested on: ACHN
HCT-116 = tested on: HCT-116
EKVX = tested on: EKVX
NCI/ADR-RES = tested on: NCI/ADR-RES
OVCAR-5 = tested on: OVCAR-5
Malme-3M = tested on: Malme-3M
RXF 393 = tested on: RXF 393
BT-549 = tested on: BT-549

Measured: GI50

O=C1/C(=C\c2ccc([N+](=O)[O-])cc2)Sc2scc(-c3ccc(O)c(O)c3)[n+]21
inactive: SF-539 5.02 µM | IGROV-1 5.11 µM | SR 2.62 µM | SK-MEL-28 12.3 µM | HT-29 3.31 µM | T47D 12.8 µM | SW-620 3.4 µM | M14 5.81 µM | U-251 6.4 µM | KM12 10.9 µM | CCRF-CEM 2.68 µM | NCI-H23 14.9 µM | ACHN 6.82 µM | HCT-116 4.2 µM | EKVX 14.2 µM | NCI/ADR-RES 4.84 µM | OVCAR-5 15.3 µM

CC(=O)N1CN2C(=O)CCC2c2cc(C)ccc21 (stereo not drawn)
inactive: SF-539 > 100 µM | IGROV-1 > 100 µM | Malme-3M > 100 µM | SK-MEL-28 > 100 µM | HT-29 > 100 µM | T47D > 100 µM | SW-620 > 100 µM | M14 > 100 µM | U-251 > 100 µM | KM12 > 100 µM | CCRF-CEM > 100 µM | NCI-H23 > 100 µM | ACHN > 100 µM | HCT-116 > 100 µM | EKVX > 100 µM | RXF 393 > 100 µM | NCI/ADR-RES > 100 µM | OVCAR-5 > 100 µM

CC(C)[Si](OC1=CCCCCC12C(=O)N(C)c1ccccc12)(C(C)C)C(C)C (stereo not drawn)
inactive: SF-539 22.5 µM | IGROV-1 25.1 µM | Malme-3M 20.2 µM | SR 29.9 µM | SK-MEL-28 23.6 µM | HT-29 20.5 µM | T47D 2.88 µM | SW-620 17.3 µM | M14 23.3 µM | U-251 18.5 µM | KM12 18.5 µM | CCRF-CEM 17.1 µM | NCI-H23 19.5 µM | ACHN 16.8 µM | EKVX 17.7 µM | RXF 393 8.77 µM | NCI/ADR-RES 18.8 µM | OVCAR-5 16.9 µM

O=C1c2cc3c(cc2CC12Cc1ccccc1C2)CCC3
inactive: SF-539 31.4 µM | IGROV-1 38.2 µM | Malme-3M 28.1 µM | SR 35.9 µM | SK-MEL-28 57.4 µM | HT-29 21.5 µM | T47D 45.9 µM | SW-620 45.8 µM | M14 23.2 µM | U-251 37.6 µM | KM12 24.9 µM | CCRF-CEM 30.5 µM | NCI-H23 50.5 µM | ACHN 27.8 µM | HCT-116 22.2 µM | EKVX 29.9 µM | RXF 393 22.1 µM | NCI/ADR-RES 28.4 µM | OVCAR-5 52.6 µM

COC(=O)c1c(C(=O)OC)c2ccccn2c1-c1cc(OC)c(Br)c(=O)o1
inactive: SF-539 56.8 µM | IGROV-1 > 100 µM | Malme-3M > 100 µM | SR > 100 µM | SK-MEL-28 > 100 µM | HT-29 > 100 µM | T47D > 100 µM | SW-620 > 100 µM | M14 > 100 µM | KM12 > 100 µM | CCRF-CEM > 100 µM | NCI-H23 > 100 µM | ACHN > 100 µM | HCT-116 > 100 µM | EKVX > 100 µM | RXF 393 > 100 µM | NCI/ADR-RES > 100 µM | OVCAR-5 > 100 µM

Cc1ccc(C)n1-c1ccccc1C1C=Cn2c(=O)oc3c(OC(C)C)c(OC(C)C)c(O)c1c32 (stereo not drawn)
inactive: SF-539 > 100 µM | IGROV-1 54 µM | Malme-3M 33.7 µM | SK-MEL-28 28.6 µM | HT-29 18.2 µM | SW-620 11.4 µM | M14 22.9 µM | U-251 25.8 µM | KM12 8.11 µM | CCRF-CEM 18 µM | NCI-H23 13.3 µM | BT-549 43.5 µM | ACHN 33.3 µM | HCT-116 8.26 µM | EKVX 23.1 µM | RXF 393 7.78 µM | NCI/ADR-RES 27.4 µM | OVCAR-5 > 100 µM

CCC(c1ccc(N(C)C)cc1)C1NC(=S)NC1=O (stereo not drawn)
inactive: SF-539 > 100 µM | IGROV-1 58.3 µM | Malme-3M > 100 µM | SR 8.11 µM | SK-MEL-28 > 100 µM | HT-29 57.1 µM | T47D 78.3 µM | SW-620 68.9 µM | M14 74.8 µM | U-251 86.7 µM | KM12 62.7 µM | CCRF-CEM 48.9 µM | NCI-H23 > 100 µM | ACHN > 100 µM | HCT-116 47 µM | EKVX 51.5 µM | RXF 393 > 100 µM | NCI/ADR-RES > 100 µM | OVCAR-5 > 100 µM

COc1ccc2c(c1)[n+]([O-])c(C(=O)CC(=O)C(=O)Nc1cccc(Cl)c1C)c(C)[n+]2[O-]
inactive: SF-539 > 100 µM | IGROV-1 > 100 µM | Malme-3M > 100 µM | SR 34 µM | SK-MEL-28 > 100 µM | HT-29 83 µM | SW-620 68.9 µM | M14 > 100 µM | U-251 > 100 µM | KM12 > 100 µM | CCRF-CEM 21.7 µM | NCI-H23 > 100 µM | ACHN > 100 µM | HCT-116 > 100 µM | EKVX > 100 µM | RXF 393 > 100 µM | OVCAR-5 > 100 µM

CCOC(=O)c1c(-c2ccccc2)oc(-c2ccccc2)c1C(=O)OCC
inactive: SF-539 > 100 µM | IGROV-1 > 100 µM | Malme-3M > 100 µM | SR 68.2 µM | SK-MEL-28 > 100 µM | HT-29 22.6 µM | SW-620 > 100 µM | M14 > 100 µM | U-251 > 100 µM | KM12 > 100 µM | CCRF-CEM 41.1 µM | NCI-H23 89.3 µM | ACHN > 100 µM | HCT-116 > 100 µM | EKVX > 100 µM | RXF 393 > 100 µM | OVCAR-5 > 100 µM

Cc1ccc(S(=O)(=O)N/C(=C\C=C\c2ccccc2)C(=O)C(C)(C)C)cc1
inactive: SF-539 37.9 µM | IGROV-1 50.5 µM | Malme-3M > 100 µM | SR > 100 µM | SK-MEL-28 > 100 µM | HT-29 > 100 µM | T47D 85.1 µM | SW-620 > 100 µM | M14 > 100 µM | U-251 63.1 µM | KM12 > 100 µM | CCRF-CEM > 100 µM | NCI-H23 59.4 µM | ACHN 58.5 µM | HCT-116 > 100 µM | EKVX > 100 µM | RXF 393 37.8 µM | NCI/ADR-RES 42.3 µM | OVCAR-5 > 100 µM

Cc1cn(CCCC2=NCCCN2)c(=O)[nH]c1=O
inactive: SF-539 > 100 µM | IGROV-1 > 100 µM | Malme-3M > 100 µM | SK-MEL-28 > 100 µM | HT-29 > 100 µM | T47D > 100 µM | SW-620 > 100 µM | M14 > 100 µM | U-251 > 100 µM | KM12 > 100 µM | CCRF-CEM > 100 µM | NCI-H23 > 100 µM | ACHN > 100 µM | HCT-116 > 100 µM | EKVX > 100 µM | RXF 393 > 100 µM | NCI/ADR-RES > 100 µM | OVCAR-5 > 100 µM
